# Target: T1, P2X1 receptor (Homo sapiens, UniProt P51575)
# T1 construct: made in house
# T1 sequence (P51575 1-399): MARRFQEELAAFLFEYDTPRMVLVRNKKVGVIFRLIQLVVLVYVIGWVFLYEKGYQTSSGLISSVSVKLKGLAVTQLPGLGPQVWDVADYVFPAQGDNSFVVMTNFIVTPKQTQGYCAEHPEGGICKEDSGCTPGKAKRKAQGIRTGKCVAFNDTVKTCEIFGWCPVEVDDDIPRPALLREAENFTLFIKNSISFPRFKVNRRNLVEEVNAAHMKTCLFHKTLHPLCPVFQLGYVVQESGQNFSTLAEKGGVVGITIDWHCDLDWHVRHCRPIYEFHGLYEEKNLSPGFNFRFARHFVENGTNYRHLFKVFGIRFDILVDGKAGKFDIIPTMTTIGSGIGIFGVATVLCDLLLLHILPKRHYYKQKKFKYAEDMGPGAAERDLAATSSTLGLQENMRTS
# Test: Single molecule stochastic binding of ATP* to purified P2X1 reconstituted in lipid bilayers
# Conditions: corrected for photophysical blinking and photochemical bleach; compared with bulk measurements
# Excerpt: Plasmids: A FLAG-tagged human P2X1 subunit construct was generated by fusion PCR, and cloned together with an IRES-IFP1.4 fusion PCR product as a three-point ligation into the Mlul/Spel digested pLV-T backbone (see Shu, X.; Royant, A.; Lin, M. Z.; Aguilera, T. A.; Lev-Ram, V.; Steinbach, P. A.; Tsien, R. Y. Science 2009, 324, 804; and Marquis, J.; Kampfer, S. S.; Angehrn, L.; Schumperli, D. Gene therapy 2009, 16, 70.)
# Protein Purification: HEK 293T cells stably expressing the FLAG-P2X1 receptor were grown as monolayers in T300 plates. At a density of 80%, cells were washed once with phosphate buffered saline (PBS (mM); 0.1 NaCl, 2.0 Na2HPO4, 0.54 KCl, 0.4 KH2PO4, pH 7.4), mechanically detached into PBS, collected by centrifugation at 500 g for 5 min, snap frozen in liquid N2 and stored at −70° C. until needed. After defrosting, cells were diluted with 2 mL Tris-EDTA (50 mM Tris-HCl, 0.5 mM EDTA, pH 7.5) containing Halt Protease Inhibitor (Pierce, Thermo Scientific, IL, USA) and homogenized with a 5 mL cell-douncer, followed by trituration through 21-gauge and 27-gauge needles. […]
substance,measurement,value
"2′/3′-O-(2-Aminoethyl-carbamoyl)-Adenosine-5′-triphosphate, labelled with ATTO-700 [ATP*]",binding coefficients from single receptor binding data,statistically identical to overall bulk measurements

# From patent publication US12259539B2, “Optical microscope” (SMI DRUG DISCOVERY LIMITED, priority 2019, dated 2025)
